Measured values: patent US20100233241A1, “OPHTHALMIC DRUG DELIVERY SYSTEM AND APPLICATIONS” (VISTA SCIENTIFIC LLC, priority 2009, published 2010)

What was measured:
[1] = timolol drug release from ocular device in Unisol 4 buffer, UV spectroscopy; type: physicochemical; conditions: Example 11 polymer matrix with dissolved timolol free base; release study 90 days, 37° C., Unisol 4 buffer (FIG. 16)
Procedure: The following details the method utilized to monitor timolol drug release from an ocular device of this example. Solutions of timolol maleate, in a concentration range of 5 ppm to 1,000 ppm, were prepared in Unisol® 4 buffer (Unisol® 4 is a preservative-free pH-balanced saline solution manufactured by Alcon Laboratories). A UV scanning spectrophotometer was utilized to generate a calibration curve of peak absorbance (λmax=294 nm) versus concentration, in gm/100 ml, of timolol maleate. A calibration curve for timolol free base was then generated. A device weighing between 100 and 150 mg was placed in a 4 ml vial. To the vial was added 2.0 ml of Unisol® 4 buffer. After 24 hours at 37° C., the sample was removed and placed in another 4 ml vial and covered with 2.0 ml of fresh Unisol® 4 buffer. The 24-hour release vial was capped, labeled and held for analysis. This procedure was repeated four more times to obtain 1-, 2-, 3-, 4- and 5-day release data. The sampling interval was then expanded to every 3 to 5 days and so on. The release study was carried out for a total of 90 days. The drug release samples were analyzed by UV spectroscopy and absorbance readings converted to weight of drug via the calibration curve. A plot of cumulative weight, in micrograms, of drug released versus time was generated.

[2] = ciprofloxacin drug release from ocular device in Purilens Plus buffer, UV spectroscopy; type: physicochemical
Procedure: The following details the method utilized to monitor ciprofloxacin drug release from an ocular device of this example. Solutions of ciprofloxacin, in a concentration range of 5 ppm to 1,000 ppm, were prepared in Purilens Plus buffer (Purilens Plus is a preservative-free pH-balanced saline solution manufactured by The Lifestyle Company). A UV scanning spectrophotometer was utilized to generate a calibration curve of peak absorbance (λmax=272 nm) versus concentration, in gm/100 ml, of ciprofloxacin.
A device from this example weighing between 100 and 150 mg was placed in a 4 ml vial. To the vial was added 3.0 ml of Purilens Plus buffer. After 24 hours at 37° C., the sample was removed and placed in another 4 ml vial and covered with 3.0 ml of fresh Purilens Plus buffer. The 24-hour release vial was capped, labeled and held for analysis. This procedure was repeated four more times to obtain 1-, 2-, 3-, 4- and 5-day release data. The sampling interval was then expanded to every 3 to 5 days and so on. The release study was carried out for a total of 60 days.
The drug release samples were analyzed by UV spectroscopy and absorbance readings converted to weight of drug via the calibration curve.

## CC(C)(C)NC[C@H](O)COc1nsnc1N1CCOCC1 [timolol]
[1]
  timolol release from device: releases timolol in a controlled manner over several months

## O=C(O)c1cn(C2CC2)c2cc(N3CCNCC3)c(F)cc2c1=O [ciprofloxacin]
[2]; 60 days release study, 37° C., Purilens Plus buffer, Example 12 hydrogel device, initial loading about 8.67 mg
  amount of ciprofloxacin released: 4.74 mg
[2]; in the 60 days, 4.74 mg of about 8.67 mg loading
  ciprofloxacin released, share of initial loading: 55%
